Experimental data published in patent publication US8252737B2, “Antimicrobial peptides and methods of use” (priority 2004, dated 2012).
Converted amounts (≈) assume the structure as drawn. Read-outs that look alike come from different tables or passages of the source. Marks after values point to notes of the source that are not given here.

Key:
C. albicans = settings: fungus
Protocol: (§1) Measurement of Antimicrobial Activity—Minimal inhibitory concentrations (MICs) were determined using a standard microtiter dilution method in LB (Luria-Bertani) no-salt medium (10 g of tryptone and 5 g of yeast extract per liter). Briefly, cells were grown overnight at 37° C. in LB and diluted in the same medium. […] Plates were incubated at 37° C. for 24 hours and MICs determined as the lowest peptide concentration that inhibited growth. Alternatively, minimal inhibitory concentrations were determined using a standard microtiter dilution method in a Mueller-Hinton (MH) medium. Briefly, cells were grown overnight at 37° C. in MH broth and diluted in the same medium. […] Plates were incubated at 37° C. for 24 hours and MICs determined as the lowest peptide concentration that inhibited growth. However, for MIC determination of Pseudomonas aeruginosa clinical isolates, brain heart infusion (BH1) medium was used instead of MH broth. In addition, the bacteria were diluted to a final inoculum of 1×10^6 colony-forming units/ml.

gram-positive bacteria = system: gram-positive bacteria
Protocol: as §1

E. faecalis = system: E. faecalis
Protocol: as §1

gram-negative bacteria = test: MIC, microtiter dilution, Gram-negative bacteria (geometric mean of 6 strains); type: cell-based; settings: geometric mean of MIC values from all 6 Gram-negative strains of Table 11
Protocol: (§2) The geometric mean MIC values from 6 microbial strains in this table were calculated to provide an overall evaluation of antimicrobial activity against gram-negative bacteria.
In Table 11, geometric mean MIC was calculated to provide an overall view of antimicrobial activity of the peptides against Gram-negative bacteria and was also used to calculate the therapeutic index.
as §1

[1] = system: E. coli (UB 1005 wt and DC2 abs); settings: for MIC (μg/ml) E. coli C500 abs: antibiotic sensitive strain; for MIC (μg/ml) E. coli C498 wt: wild-type lab strain
Protocol: as §2, §1

[2] = Protocol: as §2, §1
P. aeruginosa H187 wt = system: P. aeruginosa H187 wt
Protocol: as §2, §1

S. typhimurium C610 abs = system: S. typhimurium C610 abs
Protocol: as §2, §1

[3] = system: Staphylococcus epidermidis
human erythrocytes = test: Hemolytic activity (MHC), Protocol B, 18 hours; settings: for Hemolytic activity Fold: fold decrease in hemolytic activity compared to V681, 18 hours; for MHC (μg/ml) hRBC: maximal peptide concentration with no hemolysis after 18 hours
Protocol: In order to evaluate the biological activities of the D-enantiomeric peptides, namely D-NAL and D-NKD, the hemolytic activity of the peptides against human erythrocytes was determined as the maximal peptide concentration that produces no hemolysis after 18 hours of incubation at 37° C.
(§3) Measurement of Hemolytic Activity—Protocol A: Peptide samples were added to 1% human erythrocytes in phosphate buffered saline (0.08M NaCl; 0.043M Na2PO4; 0.011M KH2PO4) and reactions were incubated at 37° C. for 12 hours in microtiter plates. Peptide samples were diluted 2 fold in order to determine the concentration that produced no hemolysis. […] Hemoglobin release was determined spectrophotometrically at 562 nm. The hemolytic titer was the highest 2-fold dilution of the peptide that still caused release of hemoglobin from erythrocytes. The control for no release of hemoglobin was a sample of 1% erythrocytes without any peptide added. […] Peptide samples were diluted 2 fold in order to determine the concentration that produced no hemolysis. […] Hemoglobin release was determined spectrophotometrically at 570 nm. The hemolytic titer was the highest 2-fold dilution of the peptide that still caused release of hemoglobin from erythrocytes. The control for no release of hemoglobin was a sample of 1% erythrocytes without any peptide added.

[4] = system: Pseudomonas aeruginosa strains; settings: for MIC GM: geometric mean of six Pseudomonas aeruginosa clinical isolates; for MIC CP 204: strain CP 204; for MIC M 2: strain M 2; for MIC PA 14: strain PA 14; for MIC PAK: strain PAK; for MIC PAO 1: strain PAO 1; for MIC WR 5: strain WR 5
Protocol: Pseudomonas aeruginosa strains used in this study are a diverse group of clinical isolates from different places in the world. […] The geometric mean MIC values from six Pseudomonas aeruginosa strains were calculated to provide an overall evaluation of antimicrobial activity of these peptides against Pseudomonas aeruginosa. Fold improvement was calculated by comparing the geometric mean MIC value of each peptide to that of the parent peptide V681.
as §1
For the Leu-substituted peptides, the hemolytic activity against human erythrocytes was determined as the maximal peptide concentration that produces no hemolysis after 18 hours of incubation at 37° C. Antimicrobial activity of the peptides was determined on a diverse group of Pseudomonas aeruginosa clinical isolates. […] The geometric mean MIC values from six Pseudomonas strains in Table 14 were calculated to provide an overall evaluation of antimicrobial activity of the peptides with different hydrophobicities.

human red blood cells = test: Hemolysis time study (0-8 hours, 8-500 μg/ml)
Protocol: The percent hemolysis of cells was determined spectrophotometrically by comparison with the complete hemolysis of cells in water.
as §3, with “Measurement of Hemolytic Activity—Protocol A: Peptide samples were added to 1% human erythrocytes in phosphate buffered saline (0.08M NaCl; 0.043M Na2PO4; 0.011M KH2PO4) and reactions were incubated at 37° C. for 12 hours in microtiter plates.” left out

[5] = geometric mean of MIC values from all 6 gram-positive strains of Table 12
[6] = Salmonella typhimurium wild-type lab strain
[7] = Pseudomonas aeruginosa antibiotic sensitive strain
[8] = Pseudomonas aeruginosa wild-type lab strain
[9] = Salmonella typhimurium antibiotic sensitive strain
[10] = maximal peptide concentration producing no hemolysis after 18 hours, 37° C.

| SMILES | MIC (μg/ml) C. albicans (C. albicans) [µg/mL] | MIC (μg/ml) GM (gram-positive bacteria; [5]) [µg/mL] | MIC (μg/ml) E. faecalis C625 wt (E. faecalis; wild type strain) [µg/mL] | MIC (μg/ml) B. subtilis C971 wt (Bacillus subtilis) [µg/mL] | MIC (μg/ml) GM (gram-negative bacteria) [µg/mL] | MIC (μg/ml) E. coli C500 abs [1] [µg/mL] | MIC (μg/ml) E. coli C498 wt [1] [µg/mL] | MIC (μg/ml) St C587 wt [2, 6] [µg/mL] | MIC (μg/ml) Pa H188 abs (P. aeruginosa H187 wt; [7]) [µg/mL] | MIC (μg/ml) Pa H187 wt (P. aeruginosa H187 wt; [8]) [µg/mL] | MIC (μg/ml) St C610 abs (S. typhimurium C610 abs; [9]) [µg/mL] | MIC (μg/ml) S. epidermidis C621 wt [3] [µg/mL] | MIC (μg/ml) C. xerosis C875 wt (Corynebacterium xerosis) [µg/mL] | Hemolytic activity Fold (human erythrocytes) | Hemolytic activity MHC (human erythrocytes; [10]) | MHC (μg/ml) hRBC (human erythrocytes; Table 11) | MHC (μg/ml) hRBC (human erythrocytes; Table 12) | MIC (μg/ml) S. aureus 622 wt (Staphylococcus aureus) [µg/mL] | MIC PAK [4] [µg/mL] | MIC PAO 1 [4] [µg/mL] | further results |
| --- | --- | --- | --- | --- | --- | --- | --- | --- | --- | --- | --- | --- | --- | --- | --- | --- | --- | --- | --- | --- | --- |
| CC[C@@H](C)[C@@H](NC(=O)[C@@H](C)NC(=O)[C@@H](CCCCN)NC(=O)[C@@H](CC(C)C)NC(=O)[C@@H](C)NC(=O)[C@H](NC(=O)[C@@H](Cc1c[nH]cn1)NC(=O)[C@@H](CC(C)C)NC(=O)[C@H](NC(=O)[C@H](NC(=O)[C@@H](CCCCN)NC(=O)[C@H](C)NC(=O)[C@@H](C)NC(=O)[C@@H](CO)NC(=O)[C@@H](CCCCN)NC(=O)[C@@H](Cc1ccccc1)NC(=O)[C@H](NC(=O)[C@@H](CCCCN)NC(=O)[C@@H](CC(C)C)NC(=O)[C@@H](Cc1ccccc1)NC(=O)[C@@H](CO)NC(=O)[C@@H](CCCCN)NC(=O)[C@@H](Cc1c[nH]c2ccccc12)NC(=O)[C@@H](CCCCN)NC(C)=O)[C@H](C)O)[C@H](C)O)C(C)C)[C@H](C)O)C(=O)N[C@H](CO)C(=O)N[C@H](CO)C(N)=O [D-NAL] | 12.5 (≈ 4.26 µM) | 2.8 (≈ 0.954 µM) | 12.5 (≈ 4.26 µM) | 1.6 (≈ 0.545 µM) | 3.9 (≈ 1.33 µM) | 3.1 (≈ 1.06 µM) | 3.1 (≈ 1.06 µM) | 12.5 (≈ 4.26 µM) | 3.1 (≈ 1.06 µM) | 3.1 (≈ 1.06 µM) | 3.1 (≈ 1.06 µM) | 1.6 (≈ 0.545 µM) | 1.6 (≈ 0.545 µM) | 4 | 31.3 µg/mL | 31.3 µg/mL | 31.3 µg/mL | 3.1 (≈ 1.06 µM) | 31.3 (≈ 10.7 µM) | 7.8 (≈ 2.66 µM) | MIC (μg/ml) S. aureus 623 methR (Staphylococcus aureus): 3.1 µg/mL (≈ 1.06 µM); MIC GM [4]: 13.9 µg/mL (≈ 4.74 µM); MIC CP 204 [4]: 7.8 µg/mL (≈ 2.66 µM); MIC M 2 [4]: 15.6 µg/mL (≈ 5.32 µM); MIC PA 14 [4]: 7.8 µg/mL (≈ 2.66 µM); MIC WR 5 [4]: 31.3 µg/mL (≈ 10.7 µM); hemolysis of human red blood cells (human red blood cells; 500 μg/ml, after 1 hour incubation): approximately 40%; hemolysis of human red blood cells (human red blood cells; peptide concentration of 32 μg/ml): negligible hemolysis |
| CC[C@@H](C)[C@@H](NC(=O)[C@@H](C)NC(=O)[C@@H](CCCCN)NC(=O)[C@@H](CC(C)C)NC(=O)[C@@H](C)NC(=O)[C@H](NC(=O)[C@@H](Cc1c[nH]cn1)NC(=O)[C@@H](CC(C)C)NC(=O)[C@H](NC(=O)[C@H](NC(=O)[C@@H](CCCCN)NC(=O)[C@@H](CCCCN)NC(=O)[C@@H](C)NC(=O)[C@@H](CO)NC(=O)[C@@H](CCCCN)NC(=O)[C@@H](Cc1ccccc1)NC(=O)[C@H](NC(=O)[C@@H](CCCCN)NC(=O)[C@@H](CC(C)C)NC(=O)[C@@H](Cc1ccccc1)NC(=O)[C@@H](CO)NC(=O)[C@@H](CCCCN)NC(=O)[C@@H](Cc1c[nH]c2ccccc12)NC(=O)[C@@H](CCCCN)NC(C)=O)[C@H](C)O)[C@H](C)O)C(C)C)[C@H](C)O)C(=O)N[C@H](CO)C(=O)N[C@H](CO)C(N)=O [D-NKD] | 25.0 (≈ 8.36 µM) | 4.0 (≈ 1.34 µM) | 12.5 (≈ 4.18 µM) | 1.6 (≈ 0.535 µM) | 3.9 (≈ 1.3 µM) | 3.1 (≈ 1.04 µM) | 3.1 (≈ 1.04 µM) | 6.3 (≈ 2.11 µM) | 3.1 (≈ 1.04 µM) | 6.3 (≈ 2.11 µM) | 3.1 (≈ 1.04 µM) | 3.1 (≈ 1.04 µM) | 1.6 (≈ 0.535 µM) | 32 | 250.0^h μg/ml | 250.0^h μg/ml | 250.0^h μg/ml | 6.3 (≈ 2.11 µM) | 125.0 (≈ 41.8 µM) | 15.6 (≈ 5.22 µM) | MIC (μg/ml) S. aureus 623 methR (Staphylococcus aureus): 6.3 µg/mL (≈ 2.11 µM); MIC GM [4]: 31.2 µg/mL (≈ 10.4 µM); MIC CP 204 [4]: 15.6 µg/mL (≈ 5.22 µM); MIC M 2 [4]: 31.3 µg/mL (≈ 10.5 µM); MIC PA 14 [4]: 15.6 µg/mL (≈ 5.22 µM); MIC WR 5 [4]: 62.5 µg/mL (≈ 20.9 µM) |
| CC[C@@H](C)[C@@H](NC(=O)[C@@H](C)NC(=O)[C@@H](CCCCN)NC(=O)[C@@H](CC(C)C)NC(=O)[C@@H](C)NC(=O)[C@H](NC(=O)[C@@H](Cc1c[nH]cn1)NC(=O)[C@@H](CC(C)C)NC(=O)[C@H](NC(=O)[C@H](NC(=O)[C@@H](CCCCN)NC(=O)[C@H](NC(=O)[C@@H](C)NC(=O)[C@@H](CO)NC(=O)[C@@H](CCCCN)NC(=O)[C@@H](Cc1ccccc1)NC(=O)[C@H](NC(=O)[C@@H](CCCCN)NC(=O)[C@@H](CC(C)C)NC(=O)[C@@H](Cc1ccccc1)NC(=O)[C@@H](CO)NC(=O)[C@@H](CCCCN)NC(=O)[C@@H](Cc1c[nH]c2ccccc12)NC(=O)[C@@H](CCCCN)NC(C)=O)[C@H](C)O)C(C)C)[C@H](C)O)C(C)C)[C@H](C)O)C(=O)N[C@H](CO)C(=O)N[C@H](CO)C(N)=O [D-V681] | – | – | – | 1.6 (≈ 0.54 µM) | 6.3 (≈ 2.13 µM) | 3.1 (≈ 1.05 µM) | 6.3 (≈ 2.13 µM) | – | – | – | – | 1.6 (≈ 0.54 µM) | 3.1 (≈ 1.05 µM) | – | – | 7.8 µg/mL | 7.8 µg/mL | – | 31.3 (≈ 10.6 µM) | 15.6 (≈ 5.27 µM) | MIC (μg/ml) GM (gram-positive bacteria): 3.5 µg/mL (≈ 1.18 µM); MIC (μg/ml) E. faecalis C625 wt (E. faecalis): 6.3 µg/mL (≈ 2.13 µM); MIC (μg/ml) St C587 wt ([2]; C610 abs): 12.5 µg/mL (≈ 4.22 µM); MIC (μg/ml) Pa H188 abs (P. aeruginosa H187 wt): 6.3 µg/mL (≈ 2.13 µM); MIC (μg/ml) Pa H187 wt (P. aeruginosa H187 wt; H187 wt): 6.3 µg/mL (≈ 2.13 µM); MIC (μg/ml) St C610 abs (S. typhimurium C610 abs; C610 abs): 6.3 µg/mL (≈ 2.13 µM); Hemolytic activity MHC (human erythrocytes; red cells of human, 18 h): 7.8 µg/mL; MIC (μg/ml) S. aureus 623 methR (Staphylococcus aureus; methicillin-resistant clinical strain): 6.3 µg/mL (≈ 2.13 µM); MIC (μg/ml) S. aureus 622 wt (Staphylococcus aureus; wild type strain): 6.3 µg/mL (≈ 2.13 µM) |
